From patent US20180153859A1, “METHODS OF TREATING OR PREVENTING COGNITIVE IMPAIRMENT USING INDANE ACETIC ACID DERIVATIVES BASED ON APOE4 GENOTYPE” (T3D Therapeutics, Inc., priority 2016, published 2018)

System: mild to moderate severity Alzheimer's patients
Experiment: ADAS-cog11 cognitive test in Alzheimer's patients stratified by ApoE4 genotype (trial NCT02560753)
Format: in vivo, human
Conditions: for cognitive improvement (ADAS-cog11 score change): D1-D14 and D1-D21
Description: Table 8c compares the average ADAS-cog11 score of all subjects, treated at all doses of T3D-959 in trial NCT02560753 (ClinicalTrials.gov), stratified by ApoE4 genotype and compares those scores with the average score of the group of subjects dosed at 3 mg, 10 mg, and 30 mg/d. ADAS-cog11 score change from day 1 (pre-dosing) to day 14 (D1-D14, end of treatment) and from day 1 to day 21 (D1-D21, followup) are shown.
Shown in this table are ADAS-cog11 cognitive test score changes from before dosing on day 1 of treatment (D1) to end of drug treatment on Day 14 (D14) and at follow-up 7 days post-dosing on Day 21 (D21). Drug treatment of mild to moderate severity Alzheimer's patients (MMSE=14-26) with T3D-959 was for 14 days q.d. at 3 mg, 10 mg, 30 mg or 90 mg (n=number of subjects evaluable at each dose). The ADAS-cog11 test score changes at each dose were stratified by ApoE4 genotype [E4=one or two ApoE4 alleles, Non-E4=no ApoE4 alleles].
ADAS-cog score change from day 1 to day 14 (D1-D14) and from day 1 to day 21 (D1-D21) are shown.
Adult human subjects who were tested for the presence of the ApoE4 gene (one or two E4 alleles) and had Alzheimer's disease were tested with the compound of the invention ((1S)-5-{5-ethyl-2-(4-methoxyphenyl)-1,3-oxazol-4-yl]ethoxy}-2,3-dihydro-1H-inden-1-yl) acetic acid, sodium salt. Subjects either lacked ApoE4 alleles (non-E4) or had one or two ApoE4 alleles (E4).

Compound	cognitive improvement (ADAS-cog11 score change) (ApoE4 carriers (one or two ApoE4 alleles), 30 mg and 90 mg/d q.d. for 14 days)	cognitive improvement (ADAS-cog11 score change) (ApoE4 non-carriers, 3 mg, 10 mg and 30 mg/d q.d. for 14 days, acetic acid, sodium salt)	most effective / required daily dose for cognitive improvement (AD subjects with one or two ApoE4 alleles) [mg]	most effective daily dose for cognitive improvement (ApoE4 non-carrier AD subjects) [mg qd]	cognitive improvement (ADAS-cog11 score change) (ApoE4 non-carriers, 3 mg, 10 mg and 30 mg/d q.d. for 14 days)
CCc1oc(-c2ccc(OC)cc2)nc1CCOc1ccc2c(c1)CC[C@H]2CC(=O)[O-].[Na+] [Example T3D-959]	improvement	greater cognitive improvement	–	–	–
CCc1oc(-c2ccc(OC)cc2)nc1CCOc1ccc2c(c1)CC[C@H]2CC(=O)[O-].[Na+]	–	–	≥ 30	3 to 30	showed improvement in cognition
